The structures appear in SMILES notation. Structures can show the parent of a compound that is named as a salt.

What is called Ki is a measure of affinity in units of concentration, obtained from inhibition or displacement.

The target in this assay is T1, NK1 receptors of IM9 human lymphoblasts (Homo sapiens, UniProt P25103).
T1 construct: NK1 receptors of IM9 human lymphoblasts; endogenous in cells; host or cells: IM9 human lymphoblasts
The assay can be described thus: Binding of [^125 I]BH-SP (substance P) to the NK1 receptors of human lymphoblasts. The settings on record: read-out: inhibition constant Ki (binding of substance P to the human lymphoblast NK1 receptor). As for the experimental part: In ligand binding studies, the inhibition constant Ki is defined by the Cheng-Prusoff relationship (in Receptor Binding in Drug Research, eds. R. A. O'Brien, Marcel Dekker, New York, 1986): [formula] [L]: concentration of the ligand, Kd: dissociation constant of the ligand,
IC50 : concentration which inhibits the ligand binding by 50%.
The affinity of the compounds of formula (I) for the tachykinin receptors was evaluated in vitro by several biochemical tests using radioligands:
1°) The binding of [^125 I]BH-SP (substance P labeled with iodine-125 using Bolton-Hunter's reagent) to the NK1 receptors of human lymphoblasts.
The tests were performed according to X. Emonds-Alt et al. (Eur. J. Pharmacol., 1993, 2, 403-413).

T1 sequence (P25103 whole entry): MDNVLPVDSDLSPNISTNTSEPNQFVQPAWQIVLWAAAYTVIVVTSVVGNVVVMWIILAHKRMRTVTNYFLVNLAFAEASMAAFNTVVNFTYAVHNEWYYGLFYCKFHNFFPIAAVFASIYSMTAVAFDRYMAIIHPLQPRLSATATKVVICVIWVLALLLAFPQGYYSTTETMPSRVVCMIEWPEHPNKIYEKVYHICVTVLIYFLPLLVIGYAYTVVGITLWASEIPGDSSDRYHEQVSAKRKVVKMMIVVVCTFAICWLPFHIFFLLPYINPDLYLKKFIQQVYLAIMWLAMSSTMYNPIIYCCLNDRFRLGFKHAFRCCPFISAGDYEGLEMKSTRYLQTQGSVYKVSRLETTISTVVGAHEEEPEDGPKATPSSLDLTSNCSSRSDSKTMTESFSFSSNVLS

Consider `O=C1CC(CCN2CCC(O)(c3ccccc3)CC2)(c2ccc(Cl)c(Cl)c2)CCN1Cc1ccccc1` (stereo not shown) [1-benzyl-4-(3,4-dichlorophenyl)-4-[2-(4-hydroxy-4-phenylpiperid-1-yl)ethyl]piperid-2-one hydrochloride], for which the Ki is approximately 1000 nM.
Take `O=C1CCC(CCN2CCC(Cc3ccccc3)CC2)(c2ccc(Cl)c(Cl)c2)CN1Cc1ccccc1` (stereo not shown) [5-[2-(4-benzyl-1-piperid-1-yl)ethyl]-5-(3,4-dichlorophenyl)-1-benzylpiperid-2-one hydrochloride]: the Ki was approximately 1000 nM.
Under `C[N+]1(CCC2(c3ccc(Cl)c(Cl)c3)CCC(=O)N(Cc3cc(C(F)(F)F)cc(C(F)(F)F)c3)C2)CCC(c2ccccc2)CC1` (stereo not shown) [Example 7, 1-Methyl-1-[2-[1-[3,5-bis(trifluoromethyl)benzyl]-5-(3,4-dichlorophenyl)-2-oxopiperid-5-yl]-ethyl]-4-phenylpiperidinium iodide] stands approximately 0.1 nM; under `O=C1CC(CCN2CCC(O)(c3ccccc3)CC2)(c2ccc(Cl)c(Cl)c2)CN1Cc1cc(C(F)(F)F)cc(C(F)(F)F)c1` (stereo not shown) [Example 10, 4-(3,4-Dichlorophenyl)-4-[2-(4-hydroxy-4-phenylpiperid-1-yl)ethyl]-1-[3,5-bis(trifluoromethyl)benzyl]pyrrolidin-2-one hydrochloride], approximately 0.1 nM.

The record behind these values is patent US5859029A, “Heterocyclic compounds method of preparing them and pharmeutical compositions in which they are present” (Sanofi, priority 1995, dated 1999).
